The test system of the assay is T1, monoamine oxidase (MAO).
T1 construct: gene MAOA
The assay is described as follows: MAO inhibition assay (procedure by reference). To be noted: isoenzyme and enzyme source not told.

≈ marks a conversion by molar mass, not a printed value.

In publication PMC7667569, “Chemical Composition and Biological Activities of Endophytic Fungus Talaromyces Wortmannii LGT-4, Cultured in CYM Medium” (Iranian Journal of Pharmaceutical Research : IJPR, 2020) one finds IC50 data, which are given here for 2 compounds.

As for `O=C1OCc2c(O)cccc21` [compound 1, 4-hydroxyphthalide], the IC50 came to 35 µg/mL (≈ 233 µM).
In turn, `C[C@@H]1NC(=O)[C@@H]2CCCN2C1=O` [compound 5, Cis-cyclo(L-Ala-L-Pro)] had an IC50 of 28 µg/mL (≈ 166 µM). The IC50 values of the last two compounds are within 1.5-fold of each other.

What is called IC50 is the concentration that inhibits the measured activity by half.
